Among the data in ChEMBL document CHEMBL1135795, “Bacteriopurpurinimides: highly stable and potent photosensitizers for photodynamic therapy” (J Med Chem, 2002) are logP values, retold here.

The series in a line: Partition coefficient (logP). It is filed as physicochemical. As to conditions: octanol/water.

The structures appear in SMILES notation.

As usually defined, the logP is the decadic logarithm of the partition coefficient of the neutral form, usually between octanol and water. Regarding `CCCCCCN1C(=O)c2c3nc(cc4[nH]c(cc5nc(cc6[nH]c2c(c6C)C1=O)[C@H](CC)[C@H]5C)c(C(C)OC)c4C)[C@@H](C)[C@@H]3CCC(=O)OCCC` (stereo partly drawn), the log partition coefficient (logP) (read-out: logP) was 8.18.

The molecule `CCCCCCN1C(=O)C2=C(C)c3cc4[nH]c(cc5[nH]c(cc6nc(c(c2n3)C1=O)[C@@H](CCC(=O)OCCC)[C@@H]6C)c(C)c5C(C)OCCC)[C@H](C)[C@H]4CC` (stereo partly drawn) yielded a logP of 9.16.

Consider `CCCCCCCOC(C)C1=C(C)c2cc3[nH]c(c4c5[nH]c(cc6nc(cc1n2)[C@H](C)[C@H]6CC)c(C)c5C(=O)N(CCCCCC)C4=O)[C@@H](CCC(=O)OCCC)[C@@H]3C` (stereo partly drawn), for which the logP amounted to 11.19.
